In PMC12395807, “Chemoreceptor family in plant-associated bacteria responds preferentially to the plant signal molecule glycerol 3-phosphate” (Genome Biology, 2025):

Columns and labels:
[1] = system: PacP-LBD mutant (Y86, H100, R105, Y121, K148 and Y167 replaced by alanine); test: ITC binding to PacP-LBD binding site motif mutant; design: species or system Pectobacterium atrosepticum; conditions: 36 μM PacP-LBD alanine mutant; 1 mM glycerol 3-phosphate, 2.5 mM glyceraldehyde 3-phosphate
Experimental: Plasmids for the overexpression of the different proteins were transformed into E. coli BL21(DE3). The resulting strains were grown under continuous stirring (200 rpm) at 30 °C in 2-L Erlenmeyer flasks containing 500 mL of LB medium supplemented with 50 μg/mL kanamycin. At an OD660 of 0.5, protein expression was induced by the addition of 0.1 mM isopropyl β-D-1-thiogalactopyranoside. Growth was continued at 16 °C overnight prior to cell harvesting by centrifugation at 10,000 × g for 20 min. Cell pellets were resuspended in buffer A (Additional file 2: Table S4) and subsequently broken by French press treatment at 62.5 lb/in^2. After centrifugation at 20,000 × g for 30 min, the supernatants were loaded onto 5-mL HisTrap HP columns (Amersham Biosciences) equilibrated with buffer A, and the proteins were eluted with a linear gradient of buffer B (Additional file 2: Table S4). All proteins contain a hexa-histidine tag at the N-terminal extension (Additional file 2: Table S3) and were purified at 4 °C. […]
All experiments were conducted on a VP microcalorimeter (Microcal, MA) at 15 °C for PacP-LBD and at 20 °C for the remaining proteins. […] The mean enthalpies measured from the injection of the ligands into the analysis buffer were subtracted from the raw titration data prior to data analysis with the MicroCal version of ORIGIN. […]

R2 LBD (WP_136157342.1) = test: Thermal shift ligand screening of R2; type: binding, Brenneria roseae; conditions: thermal shift assay, R2, arrays PM1, PM2A, PM3B, PM4A
Experimental: (§1) Assays were carried out on a MyIQ2 Real-Time PCR instrument (Bio-Rad, Hercules, CA, USA). Ligand solutions were prepared by dissolving the array compounds in 50 µL of Milli-Q water, which, according to the manufacturer, corresponds to a concentration of 10–20 mM. Freshly purified proteins were dialyzed into analysis buffer (Additional file 2: Table S4). Compound arrays PM1, PM2A (carbon sources), PM3B (nitrogen sources), and PM4A (phosphorus and sulfur sources) from Biolog (https://www.biolog.com/) were used. The compositions of these arrays are provided in Additional file 2: Table S1. The experiments were conducted in 96-well plates, and each assay mixture contained 20 µL of the dialyzed protein (at 80–50 µM), 2 µL of 5 × SYPRO orange (Life Technologies, Eugene, Oregon, USA), and 2.5 µL of the resuspended array compound or the equivalent amount of buffer in the ligand-free control. The samples were heated from 23 to 85 °C at a scan rate of 1 °C/min. The protein unfolding curves were monitored by detecting changes in SYPRO® Orange fluorescence. The Tm values were determined from the first derivative values of the raw fluorescence data.

R3 LBD (WP_006464688.1) = test: Thermal shift ligand screening of R3; type: binding, Herbaspirillum frisingense; conditions: thermal shift assay, R3, arrays PM1, PM2A, PM3B, PM4A
Experimental: as §1

R4 LBD (WP_158281851.1) = test: Thermal shift ligand screening of R4; type: binding, Rivicola pingtungensis; conditions: thermal shift assay, R4, arrays PM1, PM2A, PM3B, PM4A
Experimental: as §1

SMILES: O=P(O)(O)OCC(O)CO (stereo not shown) [glycerol 3-phosphate]
- binding in microcalorimetric titration [1]: absence of binding
- Tm change (R2 LBD (WP_136157342.1)): increases in the Tm
- Tm change (R3 LBD (WP_006464688.1)): significant increases in the Tm
- Tm change (R4 LBD (WP_158281851.1)): significant increases in the Tm
